Results from patent US20140073628A1, “BENZOXAZEPINES ASN INHIBITORS OF P13K/M TOR AND METHODS OF THEIR USE AND MANUFACTURE” (priority 2010, published 2014).

Molecular target: mTOR/GbL/Raptor (mTORC1) (Homo sapiens, UniProt P42345)
Test: mTOR/GbL/Raptor (mTORC1) ELISA assay
Assay type: biochemical
Conditions: phosphorylation of 4E-BP1; 0.2 nM mTORC1, 10 μM ATP, 50 nM NHis-tagged 4E-BP1
Protocol: mTOR/GbL/Raptor (mTORC1) ELISA Assay
The measurement of mTORC1 enzyme activity was performed in an ELISA assay format following the phosphorylation of 4E-BP1 protein. All experiments were performed in the 384-well format. Generally, 0.5 μL DMSO containing varying concentrations of the test compound was mixed with 15 μL enzyme solution. Kinase reactions were initiated with the addition of 15 μL of substrates-containing solution. The assay conditions were as follows; 0.2 nM mTORC1, 10 μM ATP and 50 nM NHis-tagged 4E-BP1 in 20 mM Hepes, pH 7.2, 1 mM DTT, 50 mM NaCl, 10 mM MnCl2, 0.02 mg/mL BSA, 0.01% CHAPS, 50 mM β-glycerophosphate. Following an incubation of 120 minutes at ambient temperature, 20 μL of the reaction volume was transferred to a Ni-Chelate-coated 384-well plate. The binding step of the 4E-BP1 protein proceeded for 60 minutes, followed by washing 4 times each with 50 μL of Tris-buffered saline solution (TBS). Anti-phospho-4E-BP1 rabbit-IgG (20 μL, 1:5000) in 5% BSA-TBST (0.2% Tween-20 in TBS) was added and further incubated for 60 minutes. Incubation with a secondary HRP-tagged anti-IgG was similarly performed after washing off the primary antibody (4 washes of 50 μL). Following the final wash step with TBST, 20 μL of SuperSignal ELISA Femto (Pierce Biotechnology) was added and the luminescence measured using an EnVision plate reader.

SMILES: Cc1nc(N)nc(N2CCOc3ccc(-c4cnc5[nH]cnc5c4)cc3C2)c1Cc1ccc(F)cc1 [Compound 47, 5-[(4-fluorophenyl)methyl]-4-[7-(3H-imidazo[4,5-b]pyridin-6-yl)-2,3-dihydro-1,4-benzoxazepin-4(5H)-yl]-6-methylpyrimidin-2-amine]
- IC50: ≤ 100 nM

SMILES: Cc1nc2cc(-c3ccc4c(c3)CN(c3nc(CF)nc5c3CC(C)(C)CC5)CCO4)ccc2[nH]1 [Compound 25, 4-[2-(fluoromethyl)-6,6-dimethyl-5,6,7,8-tetrahydroquinazolin-4-yl]-7-(2-methyl-1H-benzimidazol-5-yl)-2,3,4,5-tetrahydro-1,4-benzoxazepine]
- IC50: ≤ 100 nM

SMILES: Cc1nc(N)nc(N2CCOc3ccc(-c4cnc5[nH]c(N)nc5c4)cc3C2)c1C(C)C [Compound 46, 6-{4-[2-amino-6-methyl-5-(1-methylethyl)pyrimidin-4-yl]-2,3,4,5-tetrahydro-1,4-benzoxazepin-7-yl}-3H-imidazo[4,5-b]pyridin-2-amine]
- IC50: ≤ 100 nM

SMILES: COc1ccc(-c2ccc3c(c2)CN(c2nc(CN(C)C)nc4c2CC(C)(C)CC4)CCO3)cc1S(C)(=O)=O [Compound 9, 1-(6,6-dimethyl-4-{7-[4-(methyloxy)-3-(methylsulfonyl)phenyl]-2,3-dihydro-1,4-benzoxazepin-4(5H)-yl}-5,6,7,8-tetrahydroquinazolin-2-yl)-N,N-dimethylmethanamine]
- IC50: 500 to 2500 nM

SMILES: Cc1nc2cc(-c3ccc4c(c3)CN(c3nc(NCCN(C)C)nc(C)c3Cc3ccc(F)cc3)CCO4)ccc2[nH]1 [Compound 11, N′-{5-[(4-fluorophenyl)methyl]-4-methyl-6-[7-(2-methyl-1H-benzimidazol-5-yl)-2,3-dihydro-1,4-benzoxazepin-4(5H)-yl]pyrimidin-2-yl}-N,N-dimethylethane-1,2-diamine]
- IC50: ≤ 100 nM

SMILES: Cc1nc2cc(-c3ccc4c(c3)CN(c3nc(N)nc(C)c3Cc3ccc(F)cc3)CCO4)cnc2[nH]1 [Compound 48, 5-[(4-fluorophenyl)methyl]-4-methyl-6-[7-(2-methyl-3H-imidazo[4,5-b]pyridin-6-yl)-2,3-dihydro-1,4-benzoxazepin-4(5H)-yl]pyrimidin-2-amine]
- IC50: ≤ 100 nM

SMILES: C=CCc1c(C)nc(CN(C)C)nc1N1CCOc2ccc(-c3ccc4nc(C)[nH]c4c3)cc2C1 [Compound 33, N,N-dimethyl-1-{4-methyl-6-[7-(2-methyl-1H-benzimidazol-6-yl)-2,3-dihydro-1,4-benzoxazepin-4(5H)-yl]-5-prop-2-en-1-ylpyrimidin-2-yl}methanamine]
- IC50: ≤ 100 nM

SMILES: Cc1nc2ccc(-c3ccc4c(c3)CN(c3nc(CO)nc(C)c3C(C)C)CCO4)cc2[nH]1 [Compound 5, {4-methyl-6-[7-(2-methyl-1H-benzimidazol-5-yl)-2,3-dihydro-1,4-benzoxazepin-4(5H)-yl]-5-(1-methylethyl)pyrimidin-2-yl}methanol]
- IC50: ≤ 100 nM

SMILES: Cc1nc2cc(-c3ccc4c(c3)CN(c3nc(CN(C)C)nc(C)c3CCCF)CCO4)ccc2[nH]1 [Compound 22, 1-{5-(3-fluoropropyl)-4-methyl-6-[7-(2-methyl-1H-benzimidazol-5-yl)-2,3-dihydro-1,4-benzoxazepin-4(5H)-yl]pyrimidin-2-yl}-N,N-dimethylmethanamine]
- IC50: 500 to 2500 nM

SMILES: COc1ccc(-c2ccc3c(c2)CN(c2nc(N)nc(C)c2C(C)C)CCO3)cc1NS(C)(=O)=O [Compound 16, N-[5-{4-[2-amino-6-methyl-5-(1-methylethyl)pyrimidin-4-yl]-2,3,4,5-tetrahydro-1,4-benzoxazepin-7-yl}-2-(methyloxy)phenyl]methanesulfonamide]
- IC50: ≤ 100 nM

SMILES: Cc1nc(N)nc(N2CCOc3ccc(-c4cnc5[nH]cnc5c4)cc3C2)c1C(C)C [Compound 52, 4-[7-(3H-imidazo[4,5-b]pyridin-6-yl)-2,3-dihydro-1,4-benzoxazepin-4(5H)-yl]-6-methyl-5-(1-methylethyl)pyrimidine-2-amine]
- IC50: ≤ 100 nM

SMILES: Cc1nc2cc(-c3ccc4c(c3)CN(c3nc(NC5CNC5)nc(C)c3C(C)C)CCO4)ccc2[nH]1 [Compound 15, N-azetidin-3-yl-4-methyl-6-[7-(2-methyl-1H-benzimidazol-5-yl)-2,3-dihydro-1,4-benzoxazepin-4(5H)-yl]-5-(1-methylethyl)pyrimidin-2-amine]
- IC50: ≤ 100 nM

SMILES: CC(=O)NCc1nc2c(c(N3CCOc4ccc(-c5ccc6[nH]c(C)nc6c5)cc4C3)n1)CC(C)(C)CC2 [Compound 26, N-({6,6-dimethyl-4-[7-(2-methyl-1H-benzimidazol-5-yl)-2,3-dihydro-1,4-benzoxazepin-4(5H)-yl]-5,6,7,8-tetrahydroquinazolin-2-yl}methyl)acetamide]
- IC50: ≤ 100 nM

SMILES: Cc1nc2cc(-c3ccc4c(c3)CN(c3nc(NCCCN(C)C)nc(C)c3Cc3ccc(F)cc3)CCO4)ccc2[nH]1 [Compound 13, N′-{5-[(4-fluorophenyl)methyl]-4-methyl-6-[7-(2-methyl-1H-benzimidazol-5-yl)-2,3-dihydro-1,4-benzoxazepin-4(5H)-yl]pyrimidin-2-yl}-N,N-dimethylpropane-1,3-diamine]
- IC50: ≤ 100 nM

SMILES: COCCOc1cc(-c2ccc3c(c2)CN(c2nc(CN(C)C)nc4c2CC(C)(C)CC4)CCO3)ccc1OC [Compound 7, 1-(6,6-dimethyl-4-{7-[4-(methyloxy)-3-{[2-(methyloxy)ethyl]oxy}phenyl]-2,3-dihydro-1,4-benzoxazepin-4(5H)-yl}-5,6,7,8-tetrahydroquinazolin-2-yl)-N,N-dimethylmethanamine]
- IC50: 100 to 500 nM

SMILES: Cc1nc2cc(-c3ccc4c(c3)CN(c3nc(CN5CCCC5)nc(C)c3C(C)C)CCO4)ccc2[nH]1 [Compound 20, 7-(2-methyl-1H-benzimidazol-5-yl)-4-[6-methyl-5-(1-methylethyl)-2-(pyrrolidin-1-ylmethyl)pyrimidin-4-yl]-2,3,4,5-tetrahydro-1,4-benzoxazepine]
- IC50: 100 to 500 nM

SMILES: Cc1nc2cc(-c3ccc4c(c3)CN(c3nc(NC5CNC5)nc(C)c3Cc3ccc(F)cc3)CCO4)ccc2[nH]1 [Compound 14, N-azetidin-3-yl-5-[(4-fluorophenyl)methyl]-4-methyl-6-[7-(2-methyl-1H-benzimidazol-5-yl)-2,3-dihydro-1,4-benzoxazepin-4(5H)-yl]pyrimidin-2-amine]
- IC50: ≤ 100 nM

SMILES: COc1ccc2c(N3CCOc4ccc(-c5ccc6[nH]cnc6c5)cc4C3)nc(CN(C)C)nc2c1 [Compound 37, 1-{4-[7-(1H-benzimidazol-5-yl)-2,3-dihydro-1,4-benzoxazepin-4(5H)-yl]-7-(methyloxy)quinazolin-2-yl}-N,N-dimethylmethanamine]
- IC50: 500 to 2500 nM

SMILES: COc1ccc(-c2ccc3c(c2)CN(c2nc(CN(C)C)nc4c2CC(C)(C)CC4)CCO3)cc1OC(F)F [Compound 8, 1-{4-[7-{3-[(difluoromethyl)oxy]-4-(methyloxy)phenyl}-2,3-dihydro-1,4-benzoxazepin-4(5H)-yl]-6,6-dimethyl-5,6,7,8-tetrahydroquinazolin-2-yl}-N,N-dimethylmethanamine]
- IC50: 100 to 500 nM

SMILES: COC(=O)Cc1c(C)nc(CN(C)C)nc1N1CCOc2ccc(-c3ccc4nc(C)[nH]c4c3)cc2C1 [Compound 6, methyl {2-[(dimethylamino)methyl]-4-methyl-6-[7-(2-methyl-1H-benzimidazol-5-yl)-2,3-dihydro-1,4-benzoxazepin-4(5H)-yl]pyrimidin-5-yl}acetate]
- IC50: 500 to 2500 nM

SMILES: COc1ccc(-c2ccc3c(c2)CN(c2nc(CN(C)C)nc4c2CC(C)(C)CC4)CCO3)cc1C(C)=O [Compound 18, 1-[5-(4-{2-[(dimethylamino)methyl]-6,6-dimethyl-5,6,7,8-tetrahydroquinazolin-4-yl}-2,3,4,5-tetrahydro-1,4-benzoxazepin-7-yl)-2-(methyloxy)phenyl]ethanone]
- IC50: 100 to 500 nM

SMILES: Cc1nc2cc(-c3ccc4c(c3)CN(c3nc(N)nc(C)c3C(C)C)CCO4)cnc2[nH]1 [Compound 50, 4-methyl-5-(1-methylethyl)-6-[7-(2-methyl-3H-imidazo[4,5-b]pyridin-6-yl)-2,3-dihydro-1,4-benzoxazepin-4(5H)-yl]pyrimidin-2-amine]
- IC50: ≤ 100 nM

SMILES: Cc1nc2cc(-c3ccc4c(c3)CN(c3nc(CNCCF)nc(C)c3C(C)C)CCO4)ccc2[nH]1 [Compound 34, 2-fluoro-N-({4-methyl-6-[7-(2-methyl-1H-benzimidazol-5-yl)-2,3-dihydro-1,4-benzoxazepin-4(5H)-yl]-5-(1-methylethyl)pyrimidin-2-yl}methyl)ethanamine]
- IC50: ≤ 100 nM
